According to US20080220078A1, “Pharmaceutical Formulations” (Vectura Limited, priority 2004, published 2008):
Where “and” joins values, the source holds several entries; their conditions need not be identical. Identical values can stand only once.

Columns and labels:
Type in all cases: physicochemical
[1] = Zeta potential (Zetasizer 3000HS, in cyclohexane); details: average of 10 measurements
Description: In addition, the powders were studied using the Zetasizer 3000HS instrument (Malvern Instruments Ltd, UK.) Each sample was tested in cyclohexane, and zeta potential measurements were obtained. Zetasizer measures the zeta potential. This is a measure of the electric potential on a particle in suspension in the hydrodynamic plane of shear. The results are summarized as follows: Each result is an average of 10 measurements.

[2] = XPS surface analysis of powders
Excerpt: The aim of the analysis is to identify the presence of magnesium stearate on the surface of a model of a co-micronised active agent. […] The aim was to show the contrast in surface coating efficiency. The model material, representing the micronised active agent particles, was micronised lactose.
The powders have been analyzed using both TOF-SIMS and XPS. TOF-SIMS provides a mass spectrum of the outermost 1 nm of the surface, and is used here to asses whether the magnesium stearate coverage of the lactose is complete or in patches. XPS provides a spectrum representative of the outermost 10 nm of the surface of the sample and is used here in comparison to the TOF-SIMS data to assess the depth of coverage of the magnesium stearate on the lactose surface.
XPS is a surface analytical technique that can quantify the amount of different chemical species in the outermost 10 nm of a surface. In the simplest form of analysis, XPS measures the relative amount of each element present. Quantitative elemental identification can be achieved down to 1 atom in 1000. AU elements present can be detected with the exception of hydrogen. Elemental analysis may be essential in determining the amount of a surface contaminant or to quantify any surface species with a unique elemental type.

[3] = Density Measurements (poured and tapped density)
Description: Approximately 5 g of material was placed in a measuring cylinder and the volume noted. The poured density was calculated. The measuring cylinder was tapped 100 times and the volume noted. Tapping was repeated to constant volume and the tapped density calculated. The equipment used was a […] Volumeter STA […].

[4] = single measurements (Measurement 1, Measurement 2)

| Zeta Potential [1] [mV] | Area % of C 1s Spectral Envelope, C—C ([2]; Mean) [%] | Area % of C 1s Spectral Envelope, C—O ([2]; Mean) [%] | Area % of C 1s Spectral Envelope, O—C—O ([2]; Mean) [%] | Area % of C 1s Spectral Envelope, O—C═O ([2]; Mean) [%] | Relative Atomic Percentage Composition, C ([2]; Mean) [%] | Relative Atomic Percentage Composition, Mg ([2]; Mean) [%] | Relative Atomic Percentage Composition, O ([2]; Mean) [%] | Area % of C 1s Spectral Envelope, C—C [2, 4] | Area % of C 1s Spectral Envelope, C—O [2, 4] | Area % of C 1s Spectral Envelope, O—C—O [2, 4] | Area % of C 1s Spectral Envelope, O—C═O [2, 4] | Relative Atomic Percentage Composition, C [2, 4] | Relative Atomic Percentage Composition, O [2, 4] | Number of Taps to Constant Volume ([3]; Stampf Volumeter STA V2003) | Poured Density ([3]; approximately 5 g powder in measuring cylinder) [g/ml] | Tapped Density ([3]; tapped to constant volume) [g/mL] | Molecule |
| --- | --- | --- | --- | --- | --- | --- | --- | --- | --- | --- | --- | --- | --- | --- | --- | --- | --- |
| 35.5 | 5.5 | 64.3 | 20.0 | 8.7 | 54.9 | <0.1 | 45.1 | 6.4% and 4.4% | 70.9% and 57.8% | 18.0% and 22.0% | 4.7% and 12.8% | 54.47% and 55.29% | 45.43% and 44.71% | – | – | – | OC[C@H]1O[C@@H](O[C@H]2[C@H](O)[C@@H](O)C(O)O[C@@H]2CO)[C@H](O)[C@@H](O)[C@H]1O (some centres unmarked) [Lactose] |
| – | – | – | – | – | – | – | – | – | – | – | – | – | – | 200 | 0.19 | 0.24 | Salbutamol sulphate |
